Holding throughout (assay): NCI-60 cell line screen, 48 h
Test [1] deals with DMS 114 small cell lung.
Test [2] concerns HCT-15 colon.
The test system of test [3] is KM12 colon.
In test [4] the test system is KM20L2 colon.
In test [5] the test system is LXFL 529 NSCLC.
For test [6], the system named is OVCAR-3 ovarian.
The subject of test [7] is RXF 393 renal.
The test system of test [8] is SNB-75 CNS.
The subject of test [9] is U251 CNS.
In test [10] the test system is SNB-78 CNS.
Test [11] relates to BT-549 breast.
The test system of test [12] is MDA-MB-231 breast.

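Five concentrations, 48 hours, 96-well plates. GI50: concentration for 50% inhibition of growth. Definition used: TGI = concentration required for complete inhibition of growth.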 A value given as a limit tells only on which side of the number the result lay.

As for `Fc1ccccc1C1CC(C(c2ccccc2)c2ccccc2)=Nc2ccccc2S1` (centres undefined), the TGI turned out to be 23.6 µM in test [1]; 30.8 µM in test [2]; 23.1 µM in [3]; 27.6 µM in test [4]; 15.3 µM in test [5]; 24.4 µM in test [6]. The figures for the TGI in [7], in test [8] and in [9] were 17.2 µM, 5.48 µM and 25.5 µM, respectively.

Consider `O=[N+]([O-])c1ccc(Cl)c(C2SCc3nc4ccccc4n32)c1` (centres undefined), for which the TGI in test [1] is over 100 µM; in test [3], over 100 µM; in test [5], over 100 µM; in test [6], over 100 µM; in [7] it was over 100 µM; in test [8] it was 89.9 µM. The TGI in test [10] and in test [9] was over 100 µM in each case.

Regarding `COc1ccc2c(c1)CC[C@@H]1C2CC[C@]2(C)C(=O)NC(=O)CC12` (some centres undefined), the TGI in test [2], in test [3], in test [4], in test [5], in test [6] and in test [10] was over 100 µM each time. In [9], this compound registered a TGI of over 100 µM.

For the compound `Cc1cc(C)nc(NS(=O)(=O)c2ccc(NC(=O)c3cccc4cc5ccccc5nc34)cc2)n1`, the TGI is 58.5 µM in test [2]; 84.9 µM in [3]; over 100 µM in test [4]; over 100 µM in [5]; 65.3 µM in [6]; over 100 µM in test [7]. Besides, the TGI is over 100 µM in test [8], 72.7 µM in test [10] and over 100 µM in [9].

For the compound `COc1ccc(O)c2c1C(=O)CCCC2=O`, the TGI in [1], in [2], in test [3], in test [4], in test [5] and in test [6] was over 100 µM in each case. In addition, the TGI in test [10] and in test [9] was over 100 µM throughout.

For the compound `CCC1(CN(C)C)CC/C(=C\c2ccc3c(c2)OCO3)C1=O` (centres undefined), the TGI in test [2], in test [3], in [4], in test [5], in test [6] and in test [7] was over 100 µM in each case. For the same compound, the TGI in test [8], in test [10] and in test [9] was over 100 µM in each case.

On to `O=C1C2=C(c3ccccc31)C(c1ccccc1Cl)N1C(=O)CSC1=N2` (centres undefined), for which the TGI in test [1], in test [2], in test [3], in test [4], in test [5] and in [6] was over 100 µM in each case. The TGI in [8] and in [9] was over 100 µM in each case.

`COc1cc(Br)c(CC2=NCCc3cc(OC)c(OC)cc32)cc1OC`: the TGI was 68.1 µM in [1]; over 100 µM in [2]; over 100 µM in test [3]; over 100 µM in [4]; over 100 µM in test [5]; over 100 µM in [6]. Besides, the TGI in [8] and in [9] was over 100 µM throughout.

As for `COc1ccccc1/C=C\c1cc(OC)c(OC)c(OC)c1`, the TGI in test [1] was over 100 µM; in test [2] it was over 100 µM; in [3] it was over 100 µM; in test [5], over 100 µM; in test [6] it was 55.6 µM; in test [7], 36.6 µM. Further, the TGI was 72.6 µM in test [8], over 100 µM in test [10] and over 100 µM in test [9].

Turning to `Cc1ccc(Nc2ccc(Nc3ccc(C)cc3)c3c2C(=O)c2c(O)ccc(O)c2C3=O)cc1`, the TGI in test [1], in [2], in test [3], in [5], in [6] and in test [7] was over 100 µM each time. The TGI in [8], in test [10] and in test [9] was over 100 µM in each case.

As to `CCOC(=O)C12CC1(C(=O)OCC)C1CCC2C1` (centres undefined), the TGI in [1], in [2], in [5], in test [6] and in [9] was over 100 µM throughout.

Take `CCOC(=O)C(C)(C)Oc1ccc2c(-c3ccc(Cl)cc3)cc(=O)oc2c1`: the TGI in test [1], in [2], in test [4], in [5], in [6] and in test [7] was over 100 µM in each case. Moreover, the TGI in test [8] and in test [9] was over 100 µM each time.

Regarding `CCSC1=CC(=O)c2ccccc2C1=O`, the GI50 in [11] is 14.8 µM; in test [2], 13.9 µM; in test [3] it was 11 µM; in test [12], 0.759 µM; in test [6], 1.46 µM; in test [7], 2.09 µM. The GI50 was 14.8 µM in test [8] and 5.81 µM in test [9]. Also, the TGI in test [11] was determined as 28.3 µM; in test [2] it was 31.4 µM; in test [3], 25.4 µM; in [12], 3.3 µM; in [6], 2.81 µM; in test [7], 4.54 µM. Moreover, the TGI in [8] is 29.7 µM; in [9], 16.5 µM.

Turning to `CCNCCNc1cc(-c2ccc(F)cc2)c(C#N)c2nc3ccccc3n12`, the GI50 in test [11] is 4.53 µM; in test [2], 2.31 µM; in test [3], 8.37 µM; in test [12], 2.73 µM; in [6], 1.97 µM; in test [7] it was 1.71 µM. In addition, the values for the GI50 in test [8] and in test [9] were 1.81 µM and 2.41 µM, respectively. Further, the TGI in test [11] is 15.5 µM; in test [2], 5.86 µM; in test [3], 21.1 µM; in test [12], 7.69 µM; in test [6], 4.36 µM; in test [7] it was 3.44 µM. Moreover, the figures for the TGI in test [8] and in test [9] were 4.39 µM and 5.05 µM, respectively.

For the compound `Cn1ccnc1C(=O)/C=C/c1ccc(C(=O)Nc2nc3ccccc3[nH]2)cc1`, the GI50 was 1.73 µM in test [11]; 0.864 µM in test [2]; 1.12 µM in test [3]; 3.05 µM in [12]; 0.894 µM in [6]; 4.51 µM in test [7]. Further, the GI50 in [8] was 1 µM; in test [9] it was 0.916 µM. Moreover, the TGI was over 25 µM in test [11]; over 25 µM in test [2]; over 25 µM in test [3]; 13.1 µM in [12]; 17.2 µM in test [6]; over 25 µM in test [7]. Also, the TGI in test [8] was 15.9 µM; in test [9], over 25 µM.

Take `COc1cc(C2C(C#N)=C(N)OC3=C2C(=O)c2ccccc2C3=O)cc(OC)c1OC` (centres undefined): the GI50 was 1.43 µM in [11]; 1.45 µM in [2]; 0.728 µM in test [3]; 3.53 µM in test [12]; 0.493 µM in [6]; 0.517 µM in test [7]. In addition, the GI50 was 0.293 µM in [8] and 3.38 µM in test [9]. In addition, the TGI is 18.5 µM in test [11]; 18.5 µM in [2]; over 100 µM in [3]; 41.7 µM in test [12]; 4.18 µM in [6]; 16.3 µM in test [7]. In addition, the TGI is 25.1 µM in [8] and 44 µM in [9].

Turning to `Oc1ccccc1-n1c(-c2ccccc2)ccc1-c1ccccc1`, the GI50 was 13.4 µM in [11]; 5.57 µM in test [2]; 4.05 µM in test [3]; 4.21 µM in test [12]; 9.54 µM in test [6]; 7.93 µM in test [7]. Moreover, the values for the GI50 in [8] and in test [9] were 4.46 µM and 7.66 µM, respectively. Also, the TGI worked out at 89.5 µM in test [11]; 28.7 µM in [2]; 19.3 µM in test [3]; 22.1 µM in test [12]; 21.7 µM in test [6]; 23 µM in [7]. The TGI was determined as 21.5 µM in test [8] and 20.6 µM in [9].

`C[Se]C(=O)CC1=C2C=C(F)C=CC2/C(=C\c2ccc(S(C)=O)cc2)C1C` (centres undefined): the GI50 in [11] was 0.0581 µM; in [2] it was 0.0461 µM; in test [3] it was 0.0853 µM; in test [12], 0.0427 µM; in test [6], 0.0336 µM; in [7], 0.0289 µM. In addition, the GI50 in test [8] was under 0.01 µM; in [9], under 0.0181 µM. In addition, the TGI in [11] was determined as 0.266 µM; in [2] it was 1.21 µM; in [3], 3.25 µM; in test [12], 0.327 µM; in test [6], 0.26 µM; in [7], 0.8 µM. In addition, the TGI is under 0.036 µM in [8] and 1.43 µM in test [9].

For the compound `NC(CSC(c1ccccc1)(c1ccccc1)c1ccc2ccccc2c1)C(=O)O` (centres undefined), the GI50 in test [11] was 0.144 µM; in test [2] it was 0.175 µM; in test [3], 0.0804 µM; in [12], 0.0695 µM; in test [6] it was 0.0287 µM; in [7], 0.0572 µM. The values for the GI50 in [8] and in test [9] were 0.121 µM and 0.0408 µM, respectively. Besides, the TGI was 22.8 µM in test [11]; 23.7 µM in [2]; 3.21 µM in [3]; 5 µM in test [12]; 0.0992 µM in test [6]; 21.5 µM in [7]. In addition, the TGI worked out at 30.6 µM in test [8] and 12.1 µM in test [9].

Regarding `N#Cc1nc(-c2ccccc2)oc1S(=O)(=O)N1CCOCC1`, the GI50 is 6.67 µM in [11]; 1.45 µM in test [2]; 23.6 µM in test [3]; 14.1 µM in [12]; 2.02 µM in [6]; 1.68 µM in [7]. In addition, the GI50 in test [8] is 11.2 µM; in [9], 17.7 µM. Besides, the TGI was 19.6 µM in test [11]; 3.39 µM in test [2]; 68 µM in test [3]; 29.9 µM in [12]; 3.76 µM in test [6]; 3.08 µM in test [7]. In addition, the TGI worked out at 23.7 µM in test [8] and 42.2 µM in test [9].

Regarding `C#Cc1ccc(NC(=O)c2ccc(/C=C/C(=O)c3nccn3C)cc2)cc1`, the GI50 in [11] was 0.358 µM; in test [2], 0.28 µM; in test [3], 0.421 µM; in [12], 0.761 µM; in test [6] it was 0.416 µM; in test [7], 0.408 µM. Besides, the values for the GI50 in test [8] and in test [9] were 0.344 µM and 0.347 µM, respectively. Also, the TGI was 0.845 µM in test [11]; 1.6 µM in test [2]; 0.99 µM in [3]; 2.71 µM in test [12]; 0.792 µM in test [6]; 0.796 µM in [7]. Besides, the TGI in [8] amounted to 0.809 µM; in test [9], 0.757 µM.

Take `COc1ccc(C2S/C(=C\c3ccc(OC)cc3OC)C(=O)N2NC(=O)Cc2ccccc2)cc1` (centres undefined): the TGI in test [1], in test [2], in test [3], in test [5], in test [7] and in test [8] was over 100 µM each time. For the same compound, the TGI in test [9] was over 100 µM.

`Fc1ccc(-c2ncn(C3CCNCC3)c2-c2ccnc(Oc3cccc(F)c3)n2)cc1`: the GI50 was over 24 µM in [11]; over 18 µM in [2]; 13.6 µM in test [3]; 9.99 µM in test [12]; over 20.9 µM in test [6]; 5.32 µM in [7]. Further, the results for the GI50 in test [8] and in [9] were 14.8 µM and 9.74 µM, respectively. The TGI was over 25 µM in test [11]; over 25 µM in [2]; over 25 µM in test [3]; over 25 µM in [12]; over 25 µM in test [6]; over 13.3 µM in test [7]. The TGI in test [8] and in test [9] was over 25 µM each time.

With `Cn1c(O)c(C(=O)Nc2ccc([N+](=O)[O-])cc2)c(=O)n(C)c1=S`, the TGI is 4.81 µM in test [1]; 7.02 µM in [2]; 7.05 µM in test [3]; 20.4 µM in test [4]; over 50.1 µM in test [5]; 6.12 µM in test [12]. The TGI in test [6] was determined as 8.02 µM; in test [7], 2.8 µM; in test [8] it was 6.37 µM; in test [9], 7.67 µM.

The values above are taken from PubChem BioAssay (NCI).
